Reference: patent publication US20150093335A1, “CELL-TARGETED MAGNETIC NANO-MATERIAL AND BIOMEDICAL USES THEREOF” (Institute of Geology and Geophysics, Chinese Academy of …, priority 2012, published 2015)
Structures can show the parent of a compound that is named as a salt.

Columns and labels:
[1] = Longitudinal (r1) and transversal relaxivity measurement of gadolinium materials, 4.7T MRI; type: physicochemical; settings: per gadolinium concentration 0-1 mM
Excerpt: Gd contrast agents in clinical use can enhance the signal intensity of the lesion area during T1-weighted magnetic resonance imaging, thus showing a bright area. Since human naked eye is more sensitive to bright matters, these contrast agents can better meet the needs of human naked eye. But Gd contrast agents in clinical use have no targeting feature and have a low relaxation rate, thus failing to meet the needs for early diagnosis of diseases such as tumors. In the present invention, a tumor-targeted ferritin shell is used, and in the cavity thereof a gadolinium-iron nano-material is formed by biomimetic mineralization. By using purified human H-subunit ferritin as a template, a ferrous salt, a gadolinium salt and oxidant hydrogen peroxide are added into a solution of recombinant human ferritin, controlling the pH at 8.5 and the temperature at 65° C. […] The numbers of iron atoms and gadolinium atoms are measured through inductively coupled plasma mass spectrometry. The longitudinal relaxivity (r1) and transversal relaxivity (r2) of the material are measured using a 4.7T magnetic resonance imaging system. […]

U87MG human glioma = assay: 4.7T MRI of in-situ glioma; type: in vivo, nude mouse; settings: 0.1 mmol/kg tail vein, scanned 2 hours, glioma about 1-2 mm
Experimental: 10^6 U87MG human glioma cells (purchased from ATCC, cultivated at Nanjing KeyGEN BioTECH development Ltd.) are inoculated onto the cerebral cortex of a nude mouse by in-situ penetration through the cranium and its tympanic membrane slightly off the median line of the cerebrum. Magnetic resonance imaging is conducted after about 3-4 days. The nude mouse is anesthetized by respiratory anesthesia and an intravenous needle is detained in tail vein. The mouse is put into a 4.7T MRI system and stays in stationary state in the course of magnetic resonance scanning. The commercialized Gd-DTPA contrast agent (magnevist, produced by Bayer Corp.) is first injected through tail vein as reference (injection dosage: 0.1 mmol/kg) and is scanned continuously for 2 hours in the magnetic resonance chamber. After the Gd-DTPA is completely metabolized and excreted, human H-subunit magnetoferritin is injected through tail vein (injection dosage: 20 mg Fe/kg mouse weight) and is scanned continuously for 3 hours. […]
Purified human H-subunit ferritin is partially or totally denatured using denaturant such as guanidine hydrochloride (1-7 M) or urea (2-8 M) etc. such that the subunits are partially or totally depolymerized. […] Protein quantification is conducted using BCA protein quantification reagent kit. The number of Gd atoms encapsulated in a single protein molecule is measured using ICP-MS. […]

NCI-H460 lung cancer = assay: Treatment experiment on lung cancer in vivo

Row | longitudinal relaxivity r1 [1] | SMILES | T1-weighted MRI signal intensity of the glioma area after injection (U87MG human glioma) | tumor volume difference versus PBS control group (NCI-H460 lung cancer; 8 days after administration, doxorubicin 3 mg/kg every 3 days) | average tumor inhibition rate (NCI-H460 lung cancer; tumor weights, doxorubicin 3 mg/kg tail vein every 3 days, 15 days, 3 mice per group) [%]
1 | about 5.9 mM^−1S^−1 | O=C([O-])CN(CCN(CC(=O)[O-])CC(=O)O)CCN(CC(=O)[O-])CC(=O)O.[Gd+3] [Gd-DTPA] | no evident change |  | 
2 |  | COc1cccc2c1C(=O)c1c(O)c3c(c(O)c1C2=O)C[C@@](O)(C(=O)CO)C[C@@H]3O[C@H]1C[C@H](N)[C@H](O)[C@H](C)O1 [doxorubicin hydrochloride] |  | minute difference | 23
